Data published in PMC12472391, “Borylated Five-Membered Ring Iminosugars: Synthesis, Spectroscopic Analysis, and Biological Evaluation for Glycosidase Inhibition and Anticancer Properties for Application in Boron Neutron Capture Therapy (BNCT)—Part 1” (Pharmaceuticals, 2025).

Experiments:
Type in all cases: biochemical
[1] = tested on: α-D-glucosidase (rat intestine); test: Glycosidase inhibition, Table 7; details: 1 mg/mL aqueous solution added, 27 °C, run in water
panel of 15 glycosidases = test: Glycosidase inhibition, whole panel of Table 6; details: at 100 or 1000 μM
Source text: The enzymes α-D-glucosidase (from yeast), β-D-glucosidases (from almond and bovine liver), α-D-galactosidase (from coffee beans), β-D-galactosidase (from bovine liver), α-D-mannosidase (from Jack bean), β-D-mannosidase (from snail), α-L-rhamnosidase (from Penicillium decumbens), α-L-fucosidase (from bovine kidney), trehalase (from porcine kidney), β-D-glucuronidases (from E. coli and bovine liver), amyloglucosidase (from A. niger), para-nitrophenyl glycosides, and various disaccharides were purchased from Sigma-Aldrich Co. (St. Louis, MO, USA).
Brush border membranes were prepared from the rat small intestine according to the method of Kessler et al., and were assayed at pH 6.8 for rat intestinal maltase using maltose. For rat intestinal maltase, porcine kidney trehalase, and A. niger amyloglucosidase activities, the reaction mixture contained maltose (25 mM) and the appropriate amount of enzyme, and the incubations were performed for 10–30 min at 37 °C. The reaction was stopped by heating at 100 °C for 3 min. […] The absorbance at 505 nm was measured to determine the amount of the released D-glucose. Other glycosidase activities were determined using an appropriate para-nitrophenyl glycoside as substrate at the optimum pH of each enzyme. […] The released para-nitrophenol was measured spectrometrically at 400 nm. […]

[2] = molecular target: β-D-glucosidase (human lysosome) (Homo sapiens, UniProt P04062); test: Glycosidase inhibition, Table 6 footnote
β-D-glucosidase (human lysosome), sequence (P04062 40-536): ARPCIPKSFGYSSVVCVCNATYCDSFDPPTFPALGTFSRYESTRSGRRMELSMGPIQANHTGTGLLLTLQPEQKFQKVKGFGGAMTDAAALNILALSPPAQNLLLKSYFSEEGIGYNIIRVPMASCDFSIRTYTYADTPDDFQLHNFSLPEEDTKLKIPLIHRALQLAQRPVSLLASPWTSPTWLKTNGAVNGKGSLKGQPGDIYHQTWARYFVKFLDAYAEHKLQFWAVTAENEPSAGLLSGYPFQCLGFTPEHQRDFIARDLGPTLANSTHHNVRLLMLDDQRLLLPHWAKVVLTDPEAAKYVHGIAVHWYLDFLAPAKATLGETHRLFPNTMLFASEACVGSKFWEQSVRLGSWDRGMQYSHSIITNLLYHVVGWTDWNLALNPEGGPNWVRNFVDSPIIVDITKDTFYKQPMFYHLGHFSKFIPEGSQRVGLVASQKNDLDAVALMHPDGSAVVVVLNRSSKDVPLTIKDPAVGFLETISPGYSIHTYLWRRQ

[3] = molecular target: β-D-galactosidase (E. coli) (Escherichia coli, UniProt P00722); test: Glycosidase inhibition, Table 6 footnote; details: read-out: β-D-galactosidase (E. coli), inhibition % at 100 μM
β-D-galactosidase (E. coli), sequence (P00722 2-1024): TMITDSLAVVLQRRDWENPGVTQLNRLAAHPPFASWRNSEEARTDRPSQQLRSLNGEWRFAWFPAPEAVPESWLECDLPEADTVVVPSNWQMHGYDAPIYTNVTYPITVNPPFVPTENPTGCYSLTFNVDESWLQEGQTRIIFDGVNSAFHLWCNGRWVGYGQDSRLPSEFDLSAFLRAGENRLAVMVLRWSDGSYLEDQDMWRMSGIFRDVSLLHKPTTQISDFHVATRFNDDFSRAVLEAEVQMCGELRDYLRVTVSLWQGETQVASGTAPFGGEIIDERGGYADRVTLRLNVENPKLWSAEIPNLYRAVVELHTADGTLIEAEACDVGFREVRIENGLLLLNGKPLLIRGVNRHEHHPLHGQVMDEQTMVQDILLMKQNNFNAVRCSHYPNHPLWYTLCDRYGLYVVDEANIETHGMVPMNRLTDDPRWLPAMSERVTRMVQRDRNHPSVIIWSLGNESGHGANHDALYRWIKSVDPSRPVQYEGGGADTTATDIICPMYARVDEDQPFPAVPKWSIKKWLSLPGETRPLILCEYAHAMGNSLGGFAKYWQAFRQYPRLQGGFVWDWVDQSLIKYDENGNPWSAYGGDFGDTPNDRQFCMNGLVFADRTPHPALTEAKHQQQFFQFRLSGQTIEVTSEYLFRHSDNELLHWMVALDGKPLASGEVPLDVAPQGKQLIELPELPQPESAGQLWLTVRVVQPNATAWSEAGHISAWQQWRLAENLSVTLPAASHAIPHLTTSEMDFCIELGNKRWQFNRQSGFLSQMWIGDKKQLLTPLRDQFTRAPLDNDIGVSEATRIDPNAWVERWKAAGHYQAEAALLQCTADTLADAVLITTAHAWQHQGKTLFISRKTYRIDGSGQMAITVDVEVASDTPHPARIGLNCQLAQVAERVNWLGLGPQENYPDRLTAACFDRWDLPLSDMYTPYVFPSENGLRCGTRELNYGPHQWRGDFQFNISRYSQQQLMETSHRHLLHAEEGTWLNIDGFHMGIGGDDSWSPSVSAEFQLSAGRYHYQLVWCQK

[4] = molecular target: α-D-glucosidase (human lysosome) (Homo sapiens, UniProt P10253); test: Glycosidase inhibition, Table 6 footnote

Structure (SMILES): OB(O)c1ccc(CN2CC(O)C3OC(O)C(O)C32)cc1 [para 7, N-(4-Methylphenylboronic acid)-3,6-dideoxy-3,6-imino-D-gulofuranose]
- α-D-Glucosidase Rat Intestine, percentage inhibition [1]: −5.4%

Structure (SMILES): CC1(C)O[C@H]2O[C@H]3[C@@H]([C@H]2O1)N(Cc1ccc(B2OC(C)(C)C(C)(C)O2)cc1)C[C@H]3O [para 6, N-(4-Methylphenylboronic acid pinacol ester)-3,6-dideoxy-3,6-imino-1,2-O-isopropylidene-α-D-gulofuranose]
- percent inhibitions in the panel (Table 6) (panel of 15 glycosidases): do not provide a strong degree of inhibition

Structure (SMILES): OC[C@H](O)[C@@H]1[C@H](O)[C@H](O)CN1Cc1ccccc1 [Compound 5, N-Benzyl-1,4-dideoxy-1,4-imino-L-gulitol]
- inhibition at 100 µM [2]: 2.91%
- inhibition at 100 µM [3]: 0%
- α-D-Glucosidase Rat Intestine, percentage inhibition [1]: −1.3%
- percent inhibitions in the panel (Table 6) (panel of 15 glycosidases): do not provide a strong degree of inhibition
- inhibition at 100 µM [4]: 0%
